The test system of assay [1] is ATP-based allosteric TSDzyme (DNA, G4) AGGCAGTTGAGACGAACATTCCTAAGTCTGAAATTTATCACCCGCCATAGTAGACGTATCACC/CTTGCTACACGATTCAGACTTAGGAATGTTCGACATGCGAGGGTCCAATACCGACGATTACAG/GGTGATAAAACGTGTAGCAAGCTGTAATCGACTCTAACCTGGGGGAGTATTGCGGAGGAAGGTGGCTCACTACTATGGCG/GGGTAGGGCGGGTTGGGTTAGAGACGGTATTGGACCCTCGCATGACTCAACTGCCTGGTGATACGAGAGCCTGGGTAGGGCGGGTTGGG
Conditions: K+ 20 mM KAc, 70 mM KCl (assumed KAc buffer).

Assay [2] has as its system TSDzyme (in) (DNA, G4) GGGTAGGGCGGGTTGGGCCAGGCAGTTGAGACGAACATTCCTAAGTCTGAAATTTATCACCCGCCATAGTAGACGTATCA/CTTGCTACACGATTCAGACTTAGGAATGTTCGACATGCGAGGGTCCAATACCGACGATTACAG/GGTGATAAAACGTGTAGCAAGCTGTAATCGACGGGAAGAGCATGCCCATCCACTACTATGGCG/CCTCGCATGACTCAACTGCCTGGTGATACGAGGATGGGCATGCTCTTCCCGACGGTATTGGAC
Kind of assay: hemin absorbance at 404 nm vs DNA concentration. Conditions: K+ 20 mM KAc, 70 mM KCl (assumed KAc buffer).

Assay [3] has as its system Hairpin-based allosteric TSDzyme (DNA, G4) AGGCAGTTGAGACGAACATTCCTAAGTCTGAAATTTATCACCCGCCATAGTAGACGTATCACC/CTTGCTACACGATTCAGACTTAGGAATGTTCGACATGCGAGGGTCCAATACCGACGATTACAG/GGTGATAAAACGTGTAGCAAGCTGTAATCGACTCTAGCGGAAGAACCCACAACCGCGGCTCACTACTATGGCG/GGGTAGGGCGGGTTGGGTTAGAGACGGTATTGGACCCTCGCATGACTCAACTGCCTGGTGATACGAGAGCCTGGGTAGGGCGGGTTGGG
Nature of the assay: free energy of hemin/G-quadruplex complex formation.

In assay [4] the test system is G-quadruplex (free hemin-G) (DNA, G4) GGGTAGGGCGGGTTGGG
The assay is described as above.

Assay [5] deals with 10 bp Bi-quadruplex (DNA, G4) GGGTAGGGCGGGTTGGGTTTTTTTTTTGGGTAGGGCGGGTTGGG
Conditions: K+ 20 mM KAc, 70 mM KCl (assumed KAc buffer).

Assay [6] relates to G-quadruplex (free hemin-G) (DNA, G4) GGGTAGGGCGGGTTGGG
Kind of assay: hemin absorbance at 404 nm vs DNA concentration. Conditions: K+ 20 mM KAc, 70 mM KCl (assumed KAc buffer).

In assay [7] the test system is TSDzyme (out) (DNA, G4) GGGTAGGGCGGGTTGGGCAGTTGAGACGAACATTCCTAAGTCTGAAATTTATCACCCGCCATAGTAGACGTATCACCAGG/CTTGCTACACGATTCAGACTTAGGAATGTTCGACATGCGAGGGTCCAATACCGACGATTACAG/GGTGATAAAACGTGTAGCAAGCTGTAATCGACGGGAAGAGCATGCCCATCCACTACTATGGCG/CCTCGCATGACTCAACTGCCTGGTGATACGAGGATGGGCATGCTCTTCCCGACGGTATTGGAC
Kind of assay: free energy of hemin/G-quadruplex complex formation.

The subject of assay [8] is Hairpin-based allosteric TSDzyme (DNA, G4) AGGCAGTTGAGACGAACATTCCTAAGTCTGAAATTTATCACCCGCCATAGTAGACGTATCACC/CTTGCTACACGATTCAGACTTAGGAATGTTCGACATGCGAGGGTCCAATACCGACGATTACAG/GGTGATAAAACGTGTAGCAAGCTGTAATCGACTCTAGCGGAAGAACCCACAACCGCGGCTCACTACTATGGCG/GGGTAGGGCGGGTTGGGTTAGAGACGGTATTGGACCCTCGCATGACTCAACTGCCTGGTGATACGAGAGCCTGGGTAGGGCGGGTTGGG
Particulars: K+ 20 mM KAc, 70 mM KCl (assumed KAc buffer).

Assay [9] relates to TSDzyme (out) (DNA, G4) GGGTAGGGCGGGTTGGGCAGTTGAGACGAACATTCCTAAGTCTGAAATTTATCACCCGCCATAGTAGACGTATCACCAGG/CTTGCTACACGATTCAGACTTAGGAATGTTCGACATGCGAGGGTCCAATACCGACGATTACAG/GGTGATAAAACGTGTAGCAAGCTGTAATCGACGGGAAGAGCATGCCCATCCACTACTATGGCG/CCTCGCATGACTCAACTGCCTGGTGATACGAGGATGGGCATGCTCTTCCCGACGGTATTGGAC
Kind of assay: hemin absorbance at 404 nm vs DNA concentration. Conditions: K+ 20 mM KAc, 70 mM KCl (assumed KAc buffer).

Assay [10] relates to 5 bp Bi-quadruplex (DNA, G4) GGGTAGGGCGGGTTGGGTTTTTGGGTAGGGCGGGTTGGG
Particulars: K+ 20 mM KAc, 70 mM KCl (assumed KAc buffer).

In assay [11] the test system is 15 bp Bi-quadruplex (DNA, G4) GGGTAGGGCGGGTTGGGTTTTTTTTTTTTTTTGGGTAGGGCGGGTTGGG
Conditions: K+ 20 mM KAc, 70 mM KCl (assumed KAc buffer).

For assay [12], the system named is TSDzyme (in) (DNA, G4) GGGTAGGGCGGGTTGGGCCAGGCAGTTGAGACGAACATTCCTAAGTCTGAAATTTATCACCCGCCATAGTAGACGTATCA/CTTGCTACACGATTCAGACTTAGGAATGTTCGACATGCGAGGGTCCAATACCGACGATTACAG/GGTGATAAAACGTGTAGCAAGCTGTAATCGACGGGAAGAGCATGCCCATCCACTACTATGGCG/CCTCGCATGACTCAACTGCCTGGTGATACGAGGATGGGCATGCTCTTCCCGACGGTATTGGAC
Kind of assay: free energy of hemin/G-quadruplex complex formation.

Assay [13] concerns ATP-based allosteric TSDzyme (DNA, G4) AGGCAGTTGAGACGAACATTCCTAAGTCTGAAATTTATCACCCGCCATAGTAGACGTATCACC/CTTGCTACACGATTCAGACTTAGGAATGTTCGACATGCGAGGGTCCAATACCGACGATTACAG/GGTGATAAAACGTGTAGCAAGCTGTAATCGACTCTAACCTGGGGGAGTATTGCGGAGGAAGGTGGCTCACTACTATGGCG/GGGTAGGGCGGGTTGGGTTAGAGACGGTATTGGACCCTCGCATGACTCAACTGCCTGGTGATACGAGAGCCTGGGTAGGGCGGGTTGGG
The assay is described as above.

The test system is the same in assay [14]. Kind of assay: allosteric change of peroxidase activity. Conditions: 0.5 mM ATP.

The record followed here is paper PMC5975834 (2015).

Each structure is given as a SMILES string.

As usually defined, the KD is the concentration at which binding is half-saturated. Read a high KD as lower affinity. In the case of `C=CC1=C(C)C2=Cc3c(C=C)c(C)c4[n]3[Fe]([Cl])[n]3c(c(C)c(CCC(=O)O)c3=CC3=NC(=C4)C(C)=C3CCC(=O)O)=CC1=N2`, the equilibrium dissociation constant (KD) turned out to be 450 ± 170 nM in [1]; 700 ± 140 nM in assay [2]; 1300 ± 200 nM in assay [5]; 2200 ± 500 nM in assay [6]; 500 ± 150 nM in assay [8]; 750 ± 230 nM in assay [9]. Also, the equilibrium dissociation constant (KD) in assay [10] is 1200 ± 200 nM; in assay [11], 1300 ± 400 nM. For the same compound, the “-ΔGtetra” value in [3] was 8.58 ± 0.17 kcal/mol; in assay [7], 8.34 ± 0.17 kcal/mol; in assay [12] it was 8.39 ± 0.12 kcal/mol; in assay [13] it was 8.65 ± 0.22 kcal/mol. Further, the “-ΔGfree” value in assay [4] came to 7.72 ± 0.14 kcal/mol.

With `Nc1ncnc2c1ncn2[C@@H]1O[C@H](COP(=O)(O)OP(=O)(O)OP(=O)(O)O)[C@@H](O)[C@H]1O`, in assay [14], the binding result is reported as “yes”.
